The text below walks through data of PubChem BioAssay (NCI).

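Test compounds were applied to cells in 96-well plates for 48 hours at 5 doses. TGI is the concentration that stops growth completely.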 Bounds are passed on as bounds.

Test in all cases: NCI anticancer screen, dose series, 48 h
Assay [1] relates to ACHN renal.
The test system of assay [2] is SF-295 CNS.
Assay [3] has as its system OVCAR-3 ovarian.
In assay [4] the test system is HCC-2998 colon.
For assay [5], the system named is HCT-15 colon.
For assay [6], the system named is NCI-H23 lung.
Assay [7] concerns CCRF-CEM leukemia.
Assay [8] has as its system SR leukemia.
Assay [9] concerns IGROV1 ovarian.
For assay [10], the system named is U251 CNS.
In assay [11] the test system is UACC-62 melanoma.
Assay [12] has as its system UACC-257 melanoma.
In assay [13] the test system is UO-31 renal.
Assay [14] has as its system SN12C renal.
The test system of assay [15] is SK-MEL-2 melanoma.

In the case of `c1ccc(COC[C@H]2C3OCC([C@H](OCc4ccccc4)[C@H]3OCc3ccccc3)N2Cc2ccccc2)cc1` (some centres not stated), the TGI in assay [1], in [2], in assay [3], in [4], in assay [5] and in [6] was more than 100 µM each time. For the same compound, the TGI in assay [7], in assay [8], in [9], in [10], in [11] and in assay [12] was more than 100 µM in each case. Also, the TGI in [13], in [14] and in [15] was more than 100 µM each time.
On to `O=C1NC(N2CCCCC2)=N/C1=C\c1ccco1`, for which the TGI in [1], in assay [2], in [3], in assay [4], in assay [5] and in assay [6] was more than 100 µM in each case. Moreover, the TGI in [7], in assay [8], in assay [9], in assay [10], in assay [11] and in [12] was more than 100 µM in each case. Further, the TGI in assay [13], in [14] and in [15] was more than 100 µM each time.
Take `CCOC(=O)CCn1cnc(N)n1`: the TGI in [1], in assay [2], in [3], in [4], in assay [5] and in assay [6] was more than 100 µM throughout. Moreover, the TGI in [7], in assay [8], in assay [9], in assay [10], in assay [11] and in assay [12] was more than 100 µM each time. The TGI in [13], in assay [14] and in assay [15] was more than 100 µM in each case.
As for `CC(=O)OCC1OC(n2c(O)c(N=NC(N)=S)c3ccc([N+](=O)[O-])cc32)C(OC(C)=O)C1OC(C)=O` (configuration not stated), the TGI in assay [1] was more than 100 µM; in assay [2] it was more than 100 µM; in [3] it was 63.9 µM; in [4], 65.6 µM; in [5], more than 100 µM; in assay [6], 42.1 µM. In addition, the TGI was 64.8 µM in [7]; 60.2 µM in assay [8]; more than 100 µM in [9]; 87.6 µM in [10]; 27.6 µM in assay [11]; more than 100 µM in assay [12]. Moreover, the TGI in assay [14] is more than 100 µM; in [15], 47.2 µM.
In the case of `COc1ccc(NC(=O)NNS(=O)(=O)c2ccc(C)cc2)cc1`, the TGI in assay [1], in [2], in assay [4], in assay [5], in assay [6] and in assay [7] was more than 100 µM throughout. The TGI in assay [8], in assay [9], in assay [10], in assay [11], in assay [12] and in assay [13] was more than 100 µM each time. Further, the TGI in [14] and in [15] was more than 100 µM in each case.
For `Cc1ccc(O)c(C(c2cc(C)ccc2O)c2cc([N+](=O)[O-])ccc2O)c1`, the TGI worked out at 27.1 µM in assay [1]; 36.9 µM in assay [2]; 25.4 µM in assay [3]; 25.5 µM in assay [4]; 36.1 µM in assay [5]; 28.9 µM in assay [6]. In addition, the TGI in assay [7] amounted to 91 µM; in assay [8] it was 39.1 µM; in assay [9] it was 24.4 µM; in [10], 46.4 µM; in [11], 36.6 µM; in assay [12] it was 37.6 µM. Further, the values for the TGI in [13], in assay [14] and in assay [15] were 21.5 µM, 28.3 µM and 28.2 µM, respectively.
For `C[C@]12CC[C@H](O)CC1=CC[C@@H]1[C@@H]2CC[C@]2(C)NC(=O)/C(=C\c3ccccc3)C[C@@H]12`, the TGI in assay [1] stood at 43.1 µM; in [2], 33.2 µM; in assay [3], 26.2 µM; in assay [4], 30.7 µM; in [5], 37.8 µM; in assay [6], 40.7 µM. The TGI is 48.5 µM in assay [7]; more than 100 µM in assay [8]; 33.8 µM in assay [9]; 30.3 µM in assay [10]; 38.6 µM in [11]; 48.6 µM in [12]. The TGI in [13] was 25.8 µM; in [14], 66 µM; in assay [15], 31.8 µM.
Take `CCOC(OC1=C(C#N)CCCC1)C(CC)[Se]c1ccccc1[N+](=O)[O-]` (configuration not stated): the TGI came to 80.7 µM in assay [1]; 47 µM in [2]; 95.4 µM in [3]; 45.9 µM in assay [4]; 37.1 µM in assay [5]; 31.3 µM in assay [6]. Also, the TGI in assay [7] is 49.6 µM; in assay [8], 38.9 µM; in [9], 72 µM; in assay [10] it was 30.9 µM; in assay [11], 47 µM; in assay [12] it was more than 100 µM. Also, the TGI in assay [13] is 80.5 µM; in assay [14] it was 42.7 µM; in [15], more than 100 µM.
Regarding `Cc1nn(C(=O)c2ccc(Cl)cc2)c2c1C(c1ccc(Cl)cc1)SC(N)=N2` (configuration not stated), the TGI in assay [1], in assay [2], in assay [3], in assay [4], in assay [5] and in [6] was more than 10 µM throughout. In addition, the TGI in assay [7], in assay [8], in [9], in assay [10], in assay [11] and in assay [12] was more than 10 µM throughout. Moreover, the TGI in assay [14] and in assay [15] was more than 10 µM each time.
